In PMC8667898, “Topo II inhibition and DNA intercalation by new phthalazine-based derivatives as potent anticancer agents: design, synthesis, anti-proliferative, docking, and in vivo studies” (Journal of Enzyme Inhibition and Medicinal Chemistry, 2021):
Read-outs that look alike come from different tables or passages of the source.

Tests used:
[1] = system: HCT-116 cells (colorectal carcinoma); assay: MTT anti-proliferative assay, HCT-116; type: cell-based, human; details: for IC50: mean ± SD of three separate experiments, read-out: In vitro Cytotoxicity IC50 HCT-116
Method: (§1) Anti-proliferative activities of the target compounds were assessed via the standard MTT method[38–40] against three cancer cell lines, namely, hepatocellular carcinoma (HepG-2), colorectal carcinoma (HCT-116), and human breast adenocarcinoma (MCF-7). Doxorubicin was used in this test as a positive control.
(§2) Anti-proliferative activity of the synthesised compounds was estimated using the MTT assay protocol[8]^,[38–40] as shown in Supplementary data.
(§3) 4.2.1. In vitro anti-proliferative activity against MCF-7, HepG-2 and HCT-116 The cells were cultured in RPMI-1640 medium supplemented with 10% fetal bovine serum (FBS), penicillin (100 unit /mL) and streptomycin sulphate (100µg/mL) at 37 °C in a 5% CO2 incubator.
(§4) Then, cells were dropped in 96-well plates at a density of 3-8 × 10^3 cells/well and incubated for two days in a 5% CO2 incubator at 37 °C. Then, the cells were treated with the synthesized compounds and the cell cultures were continued incubated for 24 h. However, Different concentrations of the compound under test (0.0, 5.0, 12.5, 25.0 and 50 mg/ml) were added to the cell monolayer. Then, (3-[4,5-dimethylthiazol-2-yl]- 2,5-diphenyltetrazolium bromide) MTT solution (20 µl, 5mg/mL) was added to each well and incubated for additional 4 h. The formed purple crystals of MTT-formazan were dissolved in 100 µl DMSO each well; the absorbance of each well was measured at 570 nm using a plate reader (EXL 800, USA). All of the compounds were tested three times. The relative cell viability in percentage was calculated. The results for IC50 values of the active compounds are […]
(§5) The data represented the mean of three independent experiments in triplicate and were expressed as means ± SD. […]
(§6) of the cells could survive. […]

human Topo II = biological target: T1, human Topo II (Homo sapiens, UniProt P11388); assay: Topoisomerase II inhibitory activity (TopoGEN drug screening kit); type: biochemical; details: three independent experiments
T1 construct: purchased TopoGEN, Inc., Columbus
Method: The activity of topoisomerase II was determined according to the reported procedure described by Patra et al.[42]. […]
4.2.3. Measurement of topoisomerase II activity
Compounds (8a, 8b, 9a, 9c, 9d, 12a, and 12b) were further evaluated to assess their Topo II inhibitory activities. In this test, Topo II drug screening kit (TopoGEN, Inc., Columbus) was utilized to determine the Topo II activity. […] A typical enzyme […]
reaction contained a mixture of human Topo II (2 µL), substrate super coiled pHot1 DNA (0.25 µg), 50 µg/mL test compound (2 µL), and assay buffer (4 µL). The reaction started upon incubation of the mixture in 37 °C for 30 min. The reaction was terminated by addition of 10% sodium dodecylsulphate (2 µL) and proteinase K (50 µg/mL) at 37 °C for 15 min. followed by incubation for 15 min at 37 °C.
Then, the DNA was run on 1% agarose gel in BioRad gel electrophoresis system for 1–2 h followed by staining with GelRedTM stain for 2 h and destained for 15 min with TAE buffer. The gel was imaged Via BioRad’s Gel DocTMEZ system. Both supercoiled and linear strands DNA were incorporated in the gel as markers for DNA-Topo II intercalators. The results of IC50 values were calculated using the GraphPad Prism version 5.0. Each reaction was performed in duplicate, and at least three independent determinations of each IC50 were made.

[2] = system: HepG-2 cells (hepatocellular carcinoma); assay: MTT anti-proliferative assay, HepG-2; type: cell-based, human; details: for IC50: mean ± SD of three separate experiments, read-out: In vitro Cytotoxicity IC50 HepG-2
Method: Anti-proliferative activities of the target compounds were assessed via the standard MTT method[38–40] against three cancer cell lines, namely, hepatocellular carcinoma (HepG-2), colorectal carcinoma (HCT-116), and human breast adenocarcinoma (MCF-7).
as §2, §3
Then, cells were dropped in 96-well plates at a density of 3-8 × 10^3 cells/well and incubated for two days in a 5% CO2 incubator at 37 °C. Then, the cells were treated with the synthesized compounds and the cell cultures were continued incubated for 24 h. However, Different concentrations of the compound under test (0.0, 5.0, 12.5, 25.0 and 50 mg/ml) were added to the cell monolayer. Then, (3-[4,5-dimethylthiazol-2-yl]- 2,5-diphenyltetrazolium bromide) MTT solution (20 µl, 5mg/mL) was added to each well and incubated for additional 4 h. The formed purple crystals of MTT-formazan were dissolved in 100 µl DMSO each well; the absorbance of each well was measured at 570 nm using a plate reader (EXL 800, USA). All of the compounds were tested three times. The relative cell viability in percentage was calculated.
as §5

[3] = system: MCF-7 cells (human breast adenocarcinoma); assay: MTT anti-proliferative assay, MCF-7; type: cell-based; details: for IC50: mean ± SD of three separate experiments, read-out: In vitro Cytotoxicity IC50 MCF-7
Method: as §1, §2, §3, §4, §5, §6

Calf thymus DNA = assay: DNA intercalation assay (DNA/methyl green colorimetric assay); type: binding; details: three independent experiments
Method: as §5
4.2.2. DNA intercalation assay (DNA/methyl green colorimetric assay)
Affinity of some compounds for DNA-binding was examined in vitro using DNA/methyl green assay using doxorubicin as a positive control. In this test, a mixture of methyl green (20 mg) and Calf thymus DNA (10 mg) (Sigma– Aldrich) were suspended in 0.05 M TrisHCl buffer (100 mL, pH 7.5) containing 7.5 mM MgSO4. This mixture was stirred continuously for 24 h at 37 °C. Then, ethanolic solution of the test compounds was pitted into the wells of a 96-well microtiter tray at a concentration of 10, 100 and 1000 µM. The excess solvent was removed from each well under vacuum, with subsequent addition of 200 µL of the DNA/methyl green solution. The test samples were incubated for 24 h in dark at ambient temperature. After that, absorbance of each sample was determined at 642.5–645 nm. In this test, the methyl green dye reversibly binds to DNA to form persistent colored complex of DNA/methyl green. This color still stables at neutral pH. When the DNA intercalators were added, the methyl green was displaced from DNA with addition of H2O molecule to the dye resulting in formation of the colorless carbinol leading to a decrease in spectrophotometric absorbance. ΔA value (the difference between DNA/methyl green complex and free cabinol) provides the simplest means for detecting the DNA-binding affinity and relative binding strength. IC50′s were determined by linear regression of data plotted on a semi -log scale and the data were compared with doxorubicin as standard DNA intercalator . […]

[4] = ratio of IC50 values vs doxorubicin

T1 sequence (P11388 whole entry): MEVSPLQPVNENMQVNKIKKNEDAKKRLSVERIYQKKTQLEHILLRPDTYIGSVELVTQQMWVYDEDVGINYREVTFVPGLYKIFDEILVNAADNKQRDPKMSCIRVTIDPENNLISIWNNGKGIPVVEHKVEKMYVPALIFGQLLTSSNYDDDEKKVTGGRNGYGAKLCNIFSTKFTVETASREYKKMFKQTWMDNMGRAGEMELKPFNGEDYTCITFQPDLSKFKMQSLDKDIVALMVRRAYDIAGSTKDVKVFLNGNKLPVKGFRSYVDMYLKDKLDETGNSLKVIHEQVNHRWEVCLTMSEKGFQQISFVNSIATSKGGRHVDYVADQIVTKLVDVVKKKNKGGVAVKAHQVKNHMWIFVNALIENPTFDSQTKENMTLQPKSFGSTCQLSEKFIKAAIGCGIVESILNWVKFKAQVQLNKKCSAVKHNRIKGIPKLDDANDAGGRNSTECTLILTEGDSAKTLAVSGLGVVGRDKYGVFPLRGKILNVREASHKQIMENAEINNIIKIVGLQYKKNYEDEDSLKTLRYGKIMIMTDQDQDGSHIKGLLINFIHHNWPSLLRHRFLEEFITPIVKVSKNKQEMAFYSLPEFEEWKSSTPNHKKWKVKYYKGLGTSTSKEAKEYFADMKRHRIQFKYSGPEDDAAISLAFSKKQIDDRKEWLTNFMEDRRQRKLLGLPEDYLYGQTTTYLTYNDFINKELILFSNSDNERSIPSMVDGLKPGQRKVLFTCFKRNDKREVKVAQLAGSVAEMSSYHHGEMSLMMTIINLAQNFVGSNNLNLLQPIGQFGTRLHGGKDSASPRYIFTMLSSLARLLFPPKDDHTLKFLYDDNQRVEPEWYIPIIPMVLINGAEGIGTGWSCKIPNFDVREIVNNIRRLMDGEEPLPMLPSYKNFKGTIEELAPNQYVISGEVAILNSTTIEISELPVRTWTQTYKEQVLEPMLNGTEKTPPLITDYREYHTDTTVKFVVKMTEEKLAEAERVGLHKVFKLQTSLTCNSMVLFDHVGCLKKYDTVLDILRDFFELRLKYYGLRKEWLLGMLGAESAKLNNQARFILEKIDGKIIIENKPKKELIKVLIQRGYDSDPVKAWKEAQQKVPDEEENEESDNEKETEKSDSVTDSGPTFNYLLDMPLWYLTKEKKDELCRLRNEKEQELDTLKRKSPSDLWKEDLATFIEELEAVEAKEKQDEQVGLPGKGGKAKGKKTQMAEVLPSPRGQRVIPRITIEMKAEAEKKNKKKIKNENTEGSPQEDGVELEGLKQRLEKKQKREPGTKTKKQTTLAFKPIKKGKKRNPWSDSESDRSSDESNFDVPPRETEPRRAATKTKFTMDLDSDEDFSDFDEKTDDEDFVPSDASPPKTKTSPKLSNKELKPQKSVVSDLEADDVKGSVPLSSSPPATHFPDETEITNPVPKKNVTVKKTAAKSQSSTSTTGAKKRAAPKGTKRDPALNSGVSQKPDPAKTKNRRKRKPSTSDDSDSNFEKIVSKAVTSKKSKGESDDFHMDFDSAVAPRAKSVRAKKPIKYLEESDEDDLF

| SMILES | IC50 (human Topo II) [µM] | IC50 (Calf thymus DNA) [µM] | IC50 ([1]; Homo sapiens, HCT-116, MTT) [µM] | IC50 ([2]; Homo sapiens, HepG2, MTT) [µM] | IC50 ([3]; Homo sapiens, MCF7, MTT) [µM] | IC50 ([1]; MTT) [µM] | IC50 ([2]; MTT) [µM] | IC50 ([3]; MTT) [µM] | times more active than doxorubicin, HCT-116 [1, 4] [times] | times more active than doxorubicin, HepG2 [2, 4] | times more active than doxorubicin, MCF-7 [3, 4] [times] |
| --- | --- | --- | --- | --- | --- | --- | --- | --- | --- | --- | --- |
| CCCc1nnc2c3ccccc3c(NN=Cc3ccc(O)cc3)nn12 [Compound 9c, 4-[(2–(3-Propyl-[1,2, 4]triazolo[3,4-a]phthalazin-6-yl)hydrazineylidene)methyl]-phenol] | 21.4 ± 1.9 | – | 78.5 ± 2.04 | 56.3 ± 1.73 | 57.8 ± 1.56 | – | – | – | – | – | – |
| CCCc1nnc2c3ccccc3c(NNC(=O)Nc3ccccc3)nn12 [Compound 7b, N-Phenyl-2–(3-propyl-[1,2, 4]triazolo[3,4-a]phthalazin-6-yl)hydrazine-1-carboxamide] | – | 36.6 ± 1.82 | 48.6 ± 1.6 | 45 ± 1.1 | 50.7 ± 1.55 | – | – | – | – | – | – |
| CCCc1nnc2c3ccccc3c(NNC(=S)NCC)nn12 [Compound 8a, N-Ethyl-2–(3-propyl-[1,2, 4]triazolo[3,4-a]phthalazin-6-yl)hydrazine-1-carbothioamide] | 22.3 ± 2 | 29.6 ± 1.41 | 25 ± 0.7 | 28.9 ± 0.67 | 16.5 ± 0.43 | – | – | – | – | – | – |
| CCCc1nnc2c3ccccc3c(NN=Cc3ccc(F)cc3)nn12 [Compound 9b, 6-[2–(4-Fluorobenzylidene)hydrazineyl]-3-propyl-[1,2, 4]triazolo[3,4-a]phthalazine] | – | 49.9 ± 2.53 | 61.7 ± 1.89 | 63.9 ± 1.02 | 36 ± 0.98 | – | – | – | – | – | – |
| CCCc1nnc2c3ccccc3c3nnc(SCC(N)=O)n3n12 [Compound 15, 2-[(6-Propylbis([1,2, 4]triazolo)[3,4-a:4',3'-c]phthalazin-3-yl)thio]acetamide] | – | 71.2 ± 3.11 | 53.5 ± 1.55 | 38.6 ± 1 | 26.2 ± 0.77 | – | – | – | – | – | – |
| CCCc1nnc2c3ccccc3c(NNC(=O)NC3CCCCC3)nn12 [Compound 7a, N-Cyclohexyl-2–(3-propyl-[1,2, 4]triazolo[3,4-a]phthalazin-6-yl)hydrazine-1-carboxamide] | – | 37.1 ± 2 | 23.8 ± 0.81 | 24.9 ± 0.8 | 19.4 ± 0.62 | – | – | – | – | – | – |
| CCCc1nnc2c3ccccc3c(NN=Cc3ccc(Cl)cc3)nn12 [Compound 9a, 6-[2–(4-Chlorobenzylidene)hydrazineyl]-3-propyl-[1,2, 4]triazolo[3,4-a]phthalazine] | 13.7 | 43.8 ± 2.22 | 36.3 ± 1.1 | 25.2 ± 0.7 | 45.5 ± 1.22 | – | – | – | – | – | – |
| CCCc1nnc2c3ccccc3c(NNC(=S)NC3CCCCC3)nn12 [Compound 8b, N-Cyclohexyl-2–(3-propyl-[1,2, 4]triazolo[3,4-a]phthalazin-6-yl)hydrazine-1-carbothioamide] | 8.91 ± 0.77 | 34.6 ± 1.1 | 10.9 to 14.9 | 10.9 to 14.9 | 10.9 to 14.9 | 13.8 ± 0.44 | 10.9 ± 0.34 | 12.5 ± 0.32 | – | – | – |

More lines, main results first:

| IC50 (human Topo II) [µM] | IC50 (Calf thymus DNA) [µM] | SMILES | IC50 ([1]; Homo sapiens, HCT-116, MTT) [µM] | IC50 ([2]; Homo sapiens, HepG2, MTT) [µM] | IC50 ([3]; Homo sapiens, MCF7, MTT) [µM] | IC50 ([1]; MTT) [µM] | IC50 ([2]; MTT) [µM] | IC50 ([3]; MTT) [µM] | times more active than doxorubicin, HCT-116 [1, 4] [times] | times more active than doxorubicin, HepG2 [2, 4] | times more active than doxorubicin, MCF-7 [3, 4] [times] |
| --- | --- | --- | --- | --- | --- | --- | --- | --- | --- | --- | --- |
| – | 46.3 ± 2.3 | CCCc1nnc2c3ccccc3c3nnc(SCC(=O)Nc4ccc(S(N)(=O)=O)cc4)n3n12 [Compound 14c, 2-[(6-Propylbis([1,2, 4]triazolo)[3,4-a:4',3'-c]phthalazin-3-yl)thio]-N-(4-sulfamoyl-phenyl)acetamide] | 30.99 ± 0.11 | 24.8 ± 0.88 | 20.6 ± 0.88 | – | – | – | – | – | – |
| 13.7 ± 1.02 | 34.4 ± 2.8 | CCCc1nnc2c3ccccc3c3nnc(SCC(=O)Nc4ccc([N+](=O)[O-])cc4)n3n12 [Compound 14b, N-(4-Nitrophenyl)-2-[(6-propylbis([1,2, 4]triazolo)[3,4-a:4',3'-c]phthalazin-3-yl)thio]acetamide] | 10.9 to 14.9 | 10.9 to 14.9 | 10.9 to 14.9 | 12.6 ± 0.45 | 13.4 ± 0.4 | 14.9 ± 0.55 | – | – | – |
| 7.64 ± 0.66 | 28.7 ± 1.71 | CCCc1nnc2c3ccccc3c3nnc(SCC(=O)Nc4ccc(C(=O)O)cc4)n3n12 [Compound 14a, 4-[2-((6-Propylbis([1,2, 4]triazolo)[3,4-a:4',3'-c]phthalazin-3-yl)thio)acetamido]benzoic acid] | 4.35 ± 0.19 | 5.65 ± 0.25 | 4.36 ± 0.2 | – | – | – | ~2.28 | about 1.46 times | ~1.75 |
